Laboratory results published in US20260083865A1, “PROSTATE SPECIFIC MEMBRANE ANTIGEN (PSMA) LIGANDS AND USE THEREOF” (priority 2022, published 2026).
Where two headings read alike, the source gives them in different places. One block for each compound: values may come before it. Numbered stars: 1 amine (or outer) side, 2 acyl side, 3 side chain; on linkers, the order of the positions; unused ones are H or OH. Bridge positions count the residues as written; N and C are the ends. Square brackets hold non-standard residues; d marks the D form. Peptide text beside a SMILES is read from it. * marks the point of attachment. X3 = O=C(O)CN1CCN(CC(=O)O)CCN(CC(=O)NCCCOCCOCCOCCCN*)CCN(CC(=O)O)CC1; DOTA = O=C(O)CN1CCN(CC(=O)O)CCN(CC(=O)*)CCN(CC(=O)O)CC1; Phe(3-CN) = N#Cc1cccc(C[C@H](N)C(=O)O)c1; Phe(4-Cl) = N[C@@H](Cc1ccc(Cl)cc1)C(=O)O; Arg(Me) = CNC(=N)NCCC[C@H](N)C(=O)O; X1 = O=C(CC1CCN([*:1])CC1)[*:2]; X6 = O=C(CN1CCN([*:1])CC1)[*:2]; Lys(Me) = CNCCCC[C@H](N)C(=O)O; Suc = O=C(CCC(=O)[*:2])[*:1]; Tle = CC(C)(C)[C@H](N)C(=O)O; Nle = CCCC[C@H](N)C(=O)O; Aib = CC(C)(N)C(=O)O; Guanidino = N=C(N)N*

Tests used:
[1] = target: T1, PSMA-expressing C4-2 cells (Homo sapiens, UniProt Q04609); experiment: FACS binding assay (competition with 50 nM PSM-0183); details: read-out: pIC50 [C4-2] CAT (converted)
T1 construct: PSMA-expressing C4-2 cells (ATCC, Cat. No. CRL-3314) were cultured in RPMI-1640; host or cells: C4-2 cells
How it was run: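 Competition format: fluorescent tracer PSM-0183 (50 nM) displaced from PSMA on C4-2 cells by a test compound titration over 1 h at 4 °C. Bound tracer was quantified as flow-cytometric AF488 median fluorescence after washing. Four-parameter logistic fits of MFI data gave IC50 and pIC50.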

[2] = target: T2, Fc-fusion protein of human PSMA (hPSMA-Fc) (Homo sapiens, UniProt Q04609); experiment: Surface plasmon resonance assay (Biacore T200, single cycle kinetic); type: binding; details: read-out: pKD CAT (converted)
T2 construct: purchased Acro Biosystems PSA-H5264
How it was run: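 KD, expressed as pKD, came from 1:1 Langmuir fits of reference- and buffer-blank-subtracted SPR data. The runs were single-cycle kinetics at 25° C in HBST/0.1% DMSO over human PSMA-Fc, captured to ~1000 RU on a peptide-coated CM5 surface and regenerated with 10 mM glycine pH 1.5.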

[3] = FACS binding, C4-2 cells, competition with 50 nM PSM-0183, category
[4] = SPR, hPSMA-Fc, single cycle kinetic, 25° C., category
[5] = FACS binding, PSMA-expressing C4-2 cells, pIC50 category
[6] = PSMA SPR assay, hPSMA-Fc, 25° C., pKD category
[7] = pIC50 category of FACS binding, C4-2 cells
[8] = pKD category for PSMA SPR activity assay, hPSMA-Fc, 25° C.

T1 sequence (Q04609 whole entry): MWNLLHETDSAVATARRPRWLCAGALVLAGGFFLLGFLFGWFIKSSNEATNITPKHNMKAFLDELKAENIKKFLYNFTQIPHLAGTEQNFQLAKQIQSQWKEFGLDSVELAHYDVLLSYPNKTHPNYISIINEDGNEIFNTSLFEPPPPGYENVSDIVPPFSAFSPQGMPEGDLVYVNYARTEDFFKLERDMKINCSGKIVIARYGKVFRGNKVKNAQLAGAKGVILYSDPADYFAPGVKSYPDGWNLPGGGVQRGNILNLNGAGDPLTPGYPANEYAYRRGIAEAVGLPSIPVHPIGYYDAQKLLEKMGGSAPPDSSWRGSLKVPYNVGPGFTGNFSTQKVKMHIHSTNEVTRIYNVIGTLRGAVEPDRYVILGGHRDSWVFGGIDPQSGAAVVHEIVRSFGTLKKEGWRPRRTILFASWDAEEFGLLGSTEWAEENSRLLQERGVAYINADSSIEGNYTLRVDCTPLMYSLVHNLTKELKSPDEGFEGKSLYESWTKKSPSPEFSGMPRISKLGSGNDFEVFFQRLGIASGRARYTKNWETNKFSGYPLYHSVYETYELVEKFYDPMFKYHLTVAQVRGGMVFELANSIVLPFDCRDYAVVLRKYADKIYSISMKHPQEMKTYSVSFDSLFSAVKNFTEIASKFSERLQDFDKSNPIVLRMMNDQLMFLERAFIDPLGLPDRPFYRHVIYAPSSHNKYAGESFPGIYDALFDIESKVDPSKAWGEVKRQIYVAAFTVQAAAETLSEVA
T2 sequence (Q04609 44-750 limits assumed): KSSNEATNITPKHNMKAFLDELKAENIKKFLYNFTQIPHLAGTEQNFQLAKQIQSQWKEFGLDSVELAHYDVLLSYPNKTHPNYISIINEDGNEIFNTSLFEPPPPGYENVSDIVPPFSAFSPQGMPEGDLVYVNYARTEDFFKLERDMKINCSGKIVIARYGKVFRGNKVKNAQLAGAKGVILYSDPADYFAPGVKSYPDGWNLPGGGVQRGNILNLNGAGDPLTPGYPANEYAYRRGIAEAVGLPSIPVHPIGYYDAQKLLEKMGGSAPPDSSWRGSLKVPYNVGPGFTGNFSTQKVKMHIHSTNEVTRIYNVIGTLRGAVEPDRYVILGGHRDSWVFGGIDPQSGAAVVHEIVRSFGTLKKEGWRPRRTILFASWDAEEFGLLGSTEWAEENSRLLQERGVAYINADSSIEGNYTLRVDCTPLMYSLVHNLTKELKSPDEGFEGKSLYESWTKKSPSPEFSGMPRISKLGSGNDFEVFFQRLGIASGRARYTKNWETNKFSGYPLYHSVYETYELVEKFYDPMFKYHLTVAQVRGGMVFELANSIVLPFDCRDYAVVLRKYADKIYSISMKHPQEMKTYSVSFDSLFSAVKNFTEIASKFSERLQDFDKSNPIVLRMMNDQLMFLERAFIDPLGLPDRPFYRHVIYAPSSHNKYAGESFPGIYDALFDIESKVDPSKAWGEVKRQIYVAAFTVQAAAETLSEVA

SMILES: C[C@@H]1NC(=O)[C@H](CCCNC(=N)N)NC(=O)[C@H](CCCCN)NC(=O)[C@@H](NC(=O)[C@H](Cc2ccccc2)NC(=O)C(C)(C)NC(=O)[C@@H](NC(=O)CCC(=O)NCCCOCCOCCOCCCNC(=O)CN2CCN(CC(=O)O)CCN(CC(=O)O)CCN(CC(=O)O)CC2)[C@@H](C)O)CSSC[C@@H](C(=O)N[C@H](C(=O)N[C@H](C(=O)N[C@@H](CC(=O)O)C(N)=O)[C@@H](C)O)C(C)(C)C)NC(=O)[C@H](CC(N)=O)NC1=O [PSM-0193, DOTA-Ttds-Thr-Aib-Phe-[Cys-Lys-Arg-Ala-Asn-Cys]-Tle-Thr-Asp-NH2] ({X3-Suc}-T[Aib]FCKRANC[Tle]TD-NH2; disulfide 4-9)
IC50 [1, 3]: < 200 nM
Kd [2, 4]: < 12.6 nM

SMILES: CCCC[C@@H]1NC(=O)[C@@H](NC(=O)[C@H](Cc2ccc(Cl)cc2)NC(=O)C(C)(C)NC(=O)[C@@H](NC(C)=O)[C@@H](C)O)CSSC[C@@H](C(=O)N[C@H](C(=O)N[C@H](C(N)=O)[C@@H](C)O)C(C)(C)C)NC(=O)[C@H](CC(N)=O)NC(=O)C(C)(C)NC(=O)[C@H](CCC(=O)NC(=N)N)NC1=O [PSM-0236, Ac-Thr-Aib-Pcf-[Cys-Nle-Gln(Gu)-Aib-Asn-Cys]-Tle-Thr-NH2] (Ac-T[Aib][Phe(4-Cl)]C[Nle]E(Guanidino)[Aib]NC[Tle]T-NH2; disulfide 4-9)
IC50 [1, 3]: < 200 nM
Kd [2, 4]: < 12.6 nM

SMILES: CC(=O)N[C@H](C(=O)NC(C)(C)C(=O)N[C@@H](Cc1ccccc1)C(=O)N[C@H]1CSSC[C@@H](C(=O)N[C@H](C(=O)N[C@H](C(N)=O)[C@@H](C)O)C(C)(C)C)NC(=O)[C@H](CC(N)=O)NC(=O)[C@H](CCCCNC(=O)CN2CCN(CC(=O)O)CCN(CC(=O)O)CCN(CC(=O)O)CC2)NC(=O)[C@H](CCCNC(=N)N)NC(=O)[C@H](CCCCN)NC1=O)[C@@H](C)O [PSM-0326, Ac-Thr-Aib-Phe-[Cys-Lys-Arg-Lys(DOTA)-Asn-Cys]-Tle-Thr-NH2] (Ac-T[Aib]FCKRK(DOTA)NC[Tle]T-NH2; disulfide 4-9)
IC50 [1, 5]: < 200 nM
Kd [2, 6]: 12.6 to 126 nM

SMILES: CNC(=N)NCCC[C@@H]1NC(=O)[C@H](CCCCN)NC(=O)[C@@H](NC(=O)[C@H](Cc2ccc(Cl)cc2)NC(=O)C(C)(C)NC(=O)[C@@H](NC(=O)CC2CCN(C(=O)CN3CCN(CC(=O)O)CCN(CC(=O)O)CCN(CC(=O)O)CC3)CC2)[C@@H](C)O)CSSC[C@@H](C(=O)N[C@H](C(N)=O)C(C)(C)C)NC(=O)[C@H](CC(N)=O)NC(=O)C(C)(C)NC1=O [PSM-0345, DOTA-Cmp-Thr-Aib-Pcf-[Cys-Lys-Arg(Me)-Aib-Asn-Cys]-Tle-NH2] ({DOTA}-[X1]T[Aib][Phe(4-Cl)]CK[Arg(Me)][Aib]NC[Tle]-NH2; disulfide 5-10)
IC50 [1, 5]: < 200 nM
Kd [2, 6]: < 12.6 nM

SMILES: C[C@@H](O)[C@H](NC(=O)[C@@H](NC(=O)[C@@H]1CSSC[C@H](NC(=O)[C@H](Cc2ccccc2)NC(=O)C(C)(C)NC(=O)CN2CCN(C(=O)CN3CCN(CC(=O)O)CCN(CC(=O)O)CCN(CC(=O)O)CC3)CC2)C(=O)N[C@@H](CCCCN)C(=O)N[C@@H](CCCNC(=N)N)C(=O)NC(C)(C)C(=O)N[C@@H](CC(N)=O)C(=O)N1)C(C)(C)C)C(N)=O [PSM-0413, DOTA-PPAc-Aib-Phe-[Cys-Lys-Arg-Aib-Asn-Cys]-Tle-Thr-NH2] ({DOTA}-[X6][Aib]FCKR[Aib]NC[Tle]T-NH2; disulfide 4-9)
IC50 [1, 7]: < 200 nM
Kd [2, 8]: 12.6 to 126 nM

The next lines start with the values.

IC50 ([1]; FACS binding, C4-2 cells, category): < 200 nM
Kd ([2]; PSMA SPR assay, category): 12.6 to 126 nM
SMILES: CC(=O)N[C@H](C(=O)NC(C)(C)C(=O)N[C@@H](Cc1ccccc1)C(=O)N[C@H]1CSSC[C@@H](C(=O)N[C@H](C(=O)N[C@H](C(N)=O)[C@@H](C)O)C(C)(C)C)NC(=O)[C@H](CCC(=O)O)NC(=O)C(C)(C)NC(=O)[C@H](CCCNC(=N)N)NC(=O)[C@H](CCCCN)NC1=O)[C@@H](C)O [PSM-0563, Ac-Thr-Aib-Phe-[Cys-Lys-Arg-Aib-Glu-Cys]-Tle-Thr-NH2] (Ac-T[Aib]FCKR[Aib]EC[Tle]T-NH2; disulfide 4-9)

IC50 [1, 7]: 200 to 1260 nM
Kd [2, 8]: 12.6 to 126 nM
SMILES: CNCCCC[C@@H]1NC(=O)[C@@H](NC(=O)[C@H](Cc2cccc(C#N)c2)NC(=O)C(C)(C)NC(=O)[C@@H](NC(=O)CC2CCN(C(=O)CN3CCN(CC(=O)O)CCN(CC(=O)O)CCN(CC(=O)O)CC3)CC2)[C@@H](C)O)CSSC[C@@H](C(=O)N[C@H](C(N)=O)C(C)(C)C)NC(=O)[C@H](CC(N)=O)NC(=O)C(C)(C)NC(=O)[C@H](CCCNC(=N)NC)NC1=O [PSM-0459, DOTA-Cmp-Thr-Aib-Mnf-[Cys-Lys(Me)-Arg(Me)-Aib-Asn-Cys]-Tle-NH2] ({DOTA}-[X1]T[Aib][Phe(3-CN)]C[Lys(Me)][Arg(Me)][Aib]NC[Tle]-NH2; disulfide 5-10)
